Measurements published in US10766869B2, “Triazoles for the treatment of demyelinating dieases” (Vertex Pharmaceuticals Incorporated, priority 2015, dated 2020).
Like-named read-outs stand apart in the source and are kept apart here.

System: primary rat mixed cortical cells
Assay: In vitro myelination assay (MBP positive myelin strands, fold myelin pixels above background)
Type: cell-based
Conditions: Rattus norvegicus; for fold induction at 1 µM: 1.0 μM compound; for fold induction at 10 µM: 10.0 μM compound
Method in brief: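 P1 rat mixed cortical cultures (neurons, OPCs, oligodendrocytes, astrocytes, microglia) grown 14 days at 37 °C with compound, half-medium refreshed with compound on days 6 and 10. Fixed cells stained for MBP; MBP-positive myelin strand pixels per well quantified by automated imaging, reported as fold over no-compound baseline at 1.0 and 10.0 μM.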

[1] = relative to baseline of no added compound, read-out: Fold myelin pixels above background
[2] = relative to baseline of no added compound, read-out: Fold myelin pixels above background, 1.0 μM
[3] = relative to baseline of no added compound, read-out: Fold myelin pixels above background, 10.0 μM
[4] = read-out: Fold myelin pixels above background relative to baseline of no added compound

Compound	fold induction at 1 µM [1]	fold induction at 10 µM [1]	fold induction at 1 µM [2]	fold induction at 10 µM [3]	further results
Cc1nccc(-n2cnc(Nc3cc(C4CC4)cc(N4CCN(C5COC5)CC4)c3)n2)n1 [Compound 454, N-[3-cyclopropyl-5-[4-(oxetan-3-yl)piperazin-1-yl]phenyl]-1-(2-methylpyrimidin-4-yl)-1,2,4-triazol-3-amine]	≤ 1	1 to 10			
Cc1cc(Nc2ncn(-c3ccccc3)n2)cc(N2C[C@H]3CCN(C)[C@H]3C2)c1 [Compound 369, N-[3-[(3aR,6aR)-1-methyl-2,3,3a,4,6,6a-hexahydropyrrolo[2,3-c]pyrrol-5-yl]-5-methyl-phenyl]-l-phenyl-1,2,4-triazol-3-amine]			1000 to 10000	≤ 1	
Cc1cc(CN2CCN(C3COC3)CC2)c(F)c(Nc2ncn(-c3ccc(F)c(F)c3)n2)c1 [Compound 834, 1-(3,4-difluorophenyl)-N-[2-fluoro-5-methyl-3-[[4-(oxetan-3-yl)piperazin-1-yl]methyl]phenyl]-1,2,4-triazol-3-amine]					fold induction at 1 µM [4]: 1 to 10; fold induction at 10 µM [4]: 1 to 10
Cc1cc(Nc2ncn(-c3cc(F)cc(F)c3)n2)nc(NC2CCOC2)c1 (centres unmarked) [Compound 614, N6-[1-(3,5-difluorophenyl)-1,2,4-triazol-3-yl]-4-methyl-N2-tetrahydrofuran-3-yl-pyridine-2,6-diamine]	1 to 10	1 to 10			
Fc1cc(Nc2ncn(-c3ccc(F)cc3F)n2)cc(N2CCCC2)c1 [Compound 497, 1-(2,4-difluorophenyl)-N-(3-fluoro-5-pyrrolidin-1-yl-phenyl)-1,2,4-triazol-3-amine]	≤ 1	≤ 1			
Cc1cc(Nc2ncn(-c3cc(F)cc(F)c3)n2)cc(N2CCC3(CCCO3)CC2)c1 [Compound 851, 1-(3,5-difluorophenyl)-N-[3-methyl-5-(1-oxa-8-azaspiro[4.5]decan-8-yl)phenyl]-1,2,4-triazol-3-amine]					fold induction at 1 µM [4]: 1 to 10; fold induction at 10 µM [4]: 10 to 100
Cc1cc(Nc2ncn(-c3ccc(F)c(F)c3)n2)cc(C2CN(C3COC3)C2)c1 [Compound 301, 1-(3,4-difluorophenyl)-N-[3-methyl-5-[1-(oxetan-3-yl)azetidin-3-yl]phenyl]-1,2,4-triazol-3-amine]			1000 to 10000	100 to 1000	
Cc1cc(Nc2ncn(-c3cccc(F)c3)n2)cc(N2CCCC2)c1 [Compound 272, 1-(3-fluorophenyl)-N-(3-methyl-5-pyrrolidin-1-yl-phenyl)-1,2,4-triazol-3-amine]			10 to 100	≤ 1	
Cc1cc(Nc2ncn(-c3cnccn3)n2)cc(N2CCN(C)CC2)c1 [Compound 68, N-[3-methyl-5-(4-methylpiperazin-1-yl)phenyl]-1-pyrazin-2-yl-1,2,4-triazol-3-amine]			100 to 1000	1000 to 10000	
CC(C)c1cc(Nc2ncn(-c3cnccn3)n2)cc(N2CCN(C3COC3)CC2)c1 [Compound 536, N-[3-isopropyl-5-[4-(oxetan-3-yl)piperazin-1-yl]phenyl]-1-pyrazin-2-yl-1,2,4-triazol-3-amine]	100 to 1000	100 to 1000			
Cc1cc(Nc2ncn(-c3cnccn3)n2)cc(N2CCN(C3CC(F)(F)C3)CC2)c1 [Compound 75, N-[3-[4-(3,3-difluorocyclobutyl)piperazin-1-yl]-5-methyl-phenyl]-1-pyrazin-2-yl-1,2,4-triazol-3-amine]			≤ 1	100 to 1000	
Cc1cc(Nc2ncn(-c3cc(F)cc(F)c3)n2)cc(N2CCC(OCCN3CCCC3)CC2)c1 [Compound 1074, 1-(3,5-difluorophenyl)-N-[3-methyl-5-[4-(2-pyrrolidin-1-ylethoxy)-1-piperidyl]phenyl]-1,2,4-triazol-3-amine]					fold induction at 1 µM [4]: 1 to 10; fold induction at 10 µM [4]: ≤ 1
Fc1ccc(-n2cnc(Nc3cc(C4CC4)nc(N4CCCCC4)c3)n2)cc1F [Compound 327, 2-cyclopropyl-N-[1-(3,4-difluorophenyl)-1,2,4-triazol-3-yl]-6-(1-piperidyl)pyridin-4-amine]			100 to 1000	100 to 1000	
